Reference: ChEMBL document CHEMBL5543097, “Synthesis and structure-activity relationships of novel 14-membered 2-fluoro ketolides with structural modification at the C11 position” (Eur J Med Chem, 2024)
Values after ≈ are worked out from the molar mass of the structure shown.

Columns and labels:
[1] = system: Moraxella catarrhalis; test: Antibacterial activity against Moraxella catarrhalis BCA 19-5 assessed as inhibition of bacterial growth incubated for 24 hrs by CLSI based broth microdilution method; format: functional
[2] = system: Haemophilus influenzae; test: Antibacterial activity against Haemophilus influenzae HIN 19-18 assessed as inhibition of bacterial growth incubated for 20 to 24 hrs by CLSI based broth microdilution method; format: functional; conditions: HIN 19-18, time 20-24 hrs
[3] = system: Staphylococcus epidermidis; test: Antibacterial activity against erythromycin-resistant Staphylococcus epidermidis 19-9 assessed as inhibition of visible bacterial growth incubated for 18 hrs by broth microdilution method; format: functional
[4] = system: Streptococcus pneumoniae; test: Antibacterial activity against erythromycin-resistant Streptococcus pneumoniae SPN19-8 assessed as inhibition of visible bacterial growth incubated for 18 hrs by broth microdilution method; format: functional
[5] = system: Streptococcus pneumoniae; test: Antibacterial activity against erythromycin-resistant Streptococcus pneumoniae SPN19-13 assessed as inhibition of visible bacterial growth incubated for 18 hrs by broth microdilution method; format: functional
[6] = system: Haemophilus influenzae; test: Antibacterial activity against Haemophilus influenzae HIN 20-18 assessed as inhibition of bacterial growth incubated for 20 to 24 hrs by CLSI based broth microdilution method; format: functional; conditions: time 20-24 hrs
[7] = system: Moraxella catarrhalis; test: Antibacterial activity against Moraxella catarrhalis BCA 19-31 assessed as inhibition of bacterial growth incubated for 24 hrs by CLSI based broth microdilution method; format: functional; conditions: BCA 19-31, 24 h
[8] = system: Staphylococcus epidermidis; test: Antibacterial activity against erythromycin-resistant Staphylococcus epidermidis 19-5 assessed as inhibition of visible bacterial growth incubated for 18 hrs by broth microdilution method; format: functional
[9] = system: Streptococcus agalactiae; test: Antibacterial activity against erythromycin-resistant Streptococcus agalactiae 19-9 assessed as inhibition of visible bacterial growth incubated for 18 hrs by broth microdilution method; format: functional
[10] = system: Staphylococcus epidermidis; test: Antibacterial activity against erythromycin-resistant Staphylococcus epidermidis 19-8 assessed as inhibition of visible bacterial growth incubated for 18 hrs by broth microdilution method; format: functional
[11] = system: Staphylococcus epidermidis; test: Antibacterial activity against erythromycin-resistant Staphylococcus epidermidis 19-6 assessed as inhibition of visible bacterial growth incubated for 18 hrs by broth microdilution method; format: functional
[12] = system: Moraxella catarrhalis; test: Antibacterial activity against Moraxella catarrhalis BCA 19-6 assessed as inhibition of bacterial growth incubated for 24 hrs by CLSI based broth microdilution method; format: functional; conditions: Moraxella catarrhalis, BCA 19-6, 24 h, read-out: MIC
[13] = system: Staphylococcus epidermidis; test: Antibacterial activity against erythromycin-resistant Staphylococcus epidermidis 19-11 assessed as inhibition of visible bacterial growth incubated for 18 hrs by broth microdilution method; format: functional
[14] = system: Staphylococcus epidermidis; test: Antibacterial activity against erythromycin-resistant Staphylococcus epidermidis 19-4 assessed as inhibition of visible bacterial growth incubated for 18 hrs by broth microdilution method; format: functional
[15] = system: Streptococcus pyogenes; test: Antibacterial activity against erythromycin-resistant Streptococcus pyogenes ATCC 19615 assessed as inhibition of visible bacterial growth incubated for 18 hrs by broth microdilution method; format: functional
[16] = system: Streptococcus pneumoniae; test: Antibacterial activity against erythromycin-resistant Streptococcus pneumoniae SPN19-14 assessed as inhibition of visible bacterial growth incubated for 18 hrs by broth microdilution method; format: functional
[17] = Cytotoxicity against mouse AML12 cells assessed as reduction in cell viability incubated for 48 hrs by MTT assay; format: toxicity, cell-based
[18] = system: Haemophilus influenzae; test: Antibacterial activity against Haemophilus influenzae HIN 19-15 assessed as inhibition of bacterial growth incubated for 20 to 24 hrs by CLSI based broth microdilution method; format: functional; conditions: time 20-24 hrs
[19] = system: Streptococcus agalactiae; test: Antibacterial activity against erythromycin-resistant Streptococcus agalactiae 19-8 assessed as inhibition of visible bacterial growth incubated for 18 hrs by broth microdilution method; format: functional
[20] = system: Streptococcus pneumoniae; test: Potency index, ratio of telithromycin MIC to test compound MIC for antibacterial activity against Streptococcus pneumoniae SPN19-8 assessed as inhibition of visible bacterial growth incubated for 18 hrs by broth microdilution method; format: functional
[21] = system: Streptococcus pneumoniae; test: Potency index, ratio of telithromycin MIC to test compound MIC for antibacterial activity against Streptococcus pneumoniae SPN19-14 assessed as inhibition of visible bacterial growth incubated for 18 hrs by broth microdilution method; format: functional
[22] = system: Streptococcus pneumoniae; test: Potency index, ratio of telithromycin MIC to test compound MIC for antibacterial activity against Streptococcus pneumoniae SPN19-13 assessed as inhibition of visible bacterial growth incubated for 18 hrs by broth microdilution method; format: functional
[23] = Moraxella catarrhalis, BCA 19-5, 24 h, read-out: MIC

SMILES	MIC [1, 23]	MIC [2]	MIC [3]	MIC [4]	MIC [5]	MIC [6]	MIC [7]	MIC [8]	MIC [9]	MIC [10]	MIC [11]	MIC [12]	MIC [13]	MIC [14]	MIC [15]	MIC [16]	CC50 at 48 h [17]	MIC [18]	MIC [19]	also measured
CC[C@H]1OC(=O)[C@@](C)(F)C(=O)[C@H](C)[C@@H](O[C@@H]2O[C@H](C)C[C@H](N(C)C)[C@H]2O)[C@](C)(OC)C[C@@H](C)C(=O)[C@H](C)[C@H]2N(CCCOC(=O)Nc3cccc(F)c3C)C(=O)O[C@]12C	0.125 µg/mL (≈ 0.149 µM)	4 µg/mL (≈ 4.76 µM)	0.5 µg/mL (≈ 0.595 µM)	0.25 µg/mL (≈ 0.298 µM)	0.125 µg/mL (≈ 0.149 µM)	16 µg/mL (≈ 19 µM)	0.06 µg/mL (≈ 0.0714 µM)	< 0.03 µg/mL	0.5 µg/mL (≈ 0.595 µM)	0.06 µg/mL (≈ 0.0714 µM)	0.125 µg/mL (≈ 0.149 µM)	0.45 µg/mL (≈ 0.536 µM)	< 0.03 µg/mL	0.06 µg/mL (≈ 0.0714 µM)	< 0.03 µg/mL	0.125 µg/mL (≈ 0.149 µM)	36.7 µM	8 µg/mL (≈ 9.52 µM)	–	–
CC[C@H]1OC(=O)[C@H](C)[C@@H](O[C@H]2C[C@@](C)(OC)[C@@H](O)[C@H](C)O2)[C@H](C)[C@@H](O[C@@H]2O[C@H](C)C[C@H](N(C)C)[C@H]2O)[C@](C)(O)C[C@@H](C)CN(C)[C@H](C)[C@@H](O)[C@]1(C)O [AZITHROMYCIN]	> 64 µg/mL	4 µg/mL (≈ 5.34 µM)	> 64 µg/mL	0.25 µg/mL (≈ 0.334 µM)	> 64 µg/mL	> 16 µg/mL	0.125 µg/mL (≈ 0.167 µM)	0.5 µg/mL (≈ 0.668 µM)	0.125 µg/mL (≈ 0.167 µM)	0.25 µg/mL (≈ 0.334 µM)	0.5 µg/mL (≈ 0.668 µM)	> 64 µg/mL	0.25 µg/mL (≈ 0.334 µM)	> 64 µg/mL	0.25 µg/mL (≈ 0.334 µM)	4 µg/mL (≈ 5.34 µM)	> 100 µM	4 µg/mL (≈ 5.34 µM)	0.5 µg/mL (≈ 0.668 µM)	–
CC[C@H]1OC(=O)[C@@](C)(F)C(=O)[C@H](C)[C@@H](O[C@@H]2O[C@H](C)C[C@H](N(C)C)[C@H]2O)[C@](C)(OC)C[C@@H](C)C(=O)[C@H](C)[C@H]2N(CCCOC(=O)Nc3ccc(C)cc3)C(=O)O[C@]12C	0.03 µg/mL (≈ 0.0365 µM)	8 µg/mL (≈ 9.73 µM)	0.125 µg/mL (≈ 0.152 µM)	0.06 µg/mL (≈ 0.073 µM)	< 0.03 µg/mL	–	–	< 0.03 µg/mL	0.25 µg/mL (≈ 0.304 µM)	< 0.03 µg/mL	< 0.03 µg/mL	–	< 0.03 µg/mL	< 0.03 µg/mL	< 0.03 µg/mL	< 0.03 µg/mL	83.2 µM	8 µg/mL (≈ 9.73 µM)	< 0.03 µg/mL	MIC ([1]; 24 h): <0.03 µg/mL; Ratio [20]: <4; Ratio [21]: <4; Ratio [22]: <4
CC[C@H]1OC(=O)[C@@](C)(F)C(=O)[C@H](C)[C@@H](O[C@@H]2O[C@H](C)C[C@H](N(C)C)[C@H]2O)[C@](C)(OC)C[C@@H](C)C(=O)[C@H](C)[C@H]2N(CCCOC(=O)Nc3ccccc3Cl)C(=O)O[C@]12C	0.25 µg/mL (≈ 0.297 µM)	8 µg/mL (≈ 9.5 µM)	0.25 µg/mL (≈ 0.297 µM)	0.25 µg/mL (≈ 0.297 µM)	0.25 µg/mL (≈ 0.297 µM)	16 µg/mL (≈ 19 µM)	1.12 µg/mL (≈ 1.34 µM)	< 0.03 µg/mL	1 µg/mL (≈ 1.19 µM)	0.125 µg/mL (≈ 0.148 µM)	0.125 µg/mL (≈ 0.148 µM)	0.5 µg/mL (≈ 0.594 µM)	< 0.06 µg/mL	0.06 µg/mL (≈ 0.0712 µM)	< 0.03 µg/mL	0.25 µg/mL (≈ 0.297 µM)	36.2 µM	8 µg/mL (≈ 9.5 µM)	–	–
CC[C@H]1OC(=O)[C@@](C)(F)C(=O)[C@H](C)[C@@H](O[C@@H]2O[C@H](C)C[C@H](N(C)C)[C@H]2O)[C@](C)(OC)C[C@@H](C)C(=O)[C@H](C)[C@H]2N(CCCOC(=O)Nc3ccc(-c4ncccn4)cc3)C(=O)O[C@]12C	0.25 µg/mL (≈ 0.282 µM)	16 µg/mL (≈ 18.1 µM)	0.125 µg/mL (≈ 0.141 µM)	0.25 µg/mL (≈ 0.282 µM)	0.5 µg/mL (≈ 0.564 µM)	> 16 µg/mL	0.25 µg/mL (≈ 0.282 µM)	< 0.03 µg/mL	4 µg/mL (≈ 4.51 µM)	0.125 µg/mL (≈ 0.141 µM)	0.125 µg/mL (≈ 0.141 µM)	45 µg/mL (≈ 50.8 µM)	< 0.03 µg/mL	0.06 µg/mL (≈ 0.0677 µM)	< 0.03 µg/mL	0.25 µg/mL (≈ 0.282 µM)	20.4 µM	14 µg/mL (≈ 15.8 µM)	–	–
CC[C@H]1OC(=O)[C@H](C)[C@@H](O[C@H]2C[C@@](C)(OC)[C@@H](O)[C@H](C)O2)[C@H](C)[C@@H](O[C@@H]2O[C@H](C)C[C@H](N(C)C)[C@H]2O)[C@](C)(O)C[C@@H](C)C(=O)[C@H](C)[C@@H](O)[C@]1(C)O [ERYTHROMYCIN]	> 64 µg/mL	8 µg/mL (≈ 10.9 µM)	> 64 µg/mL	> 64 µg/mL	> 64 µg/mL	> 16 µg/mL	0.5 µg/mL (≈ 0.681 µM)	0.25 µg/mL (≈ 0.341 µM)	16 µg/mL (≈ 21.8 µM)	> 64 µg/mL	32 µg/mL (≈ 43.6 µM)	64 µg/mL (≈ 87.2 µM)	64 µg/mL (≈ 87.2 µM)	> 64 µg/mL	< 0.03 µg/mL	0.5 µg/mL (≈ 0.681 µM)	> 100 µM	8 µg/mL (≈ 10.9 µM)	0.125 µg/mL (≈ 0.17 µM)	–
